Measured values reported in patent US8404721B2, “Compositions and methods for treating seizure disorders” (Allergan, Inc., priority 2009, dated 2013).

System: Male C57B/6 mice
Assay: Pentylenetetrazol (PTZ)-induced convulsions in mice
Format: in vivo
Settings: for Latency to first convulsion: convulsion level 3 or higher; for Number of events Myoclonic: level 3+level 4 events; for Number of events Myoclonic / Number of events Clonic / Number of events Tonic-Clonic: scored 10 minutes; for Number of events Clonic: level 5 events; for Number of events Tonic-Clonic: level 6+level 7 events
Experimental: Male C57B/6 mice (20-25 g) were administered intraperitoneal Compound A (1 mg/kg), Compound B (1 or 10 mg/kg), Compound C (1 mg/kg), diazepam (0.5 mg/kg), gabapentin (50 mg/kg), or vehicle (ddH 2O) prior to treatment with pentylenetetrazol (PTZ, 50 mg/kg IP). Compounds A, B, C, and gabapentin were administered 60 minutes before, and diazepam or vehicle was administered 30 minutes before PTZ. Immediately following PTZ injection, mice were individually placed in an observation cage and the latency to onset of first convulsion (level 3 or higher; Table 2) was recorded, as well as the number of each type of convulsion (see Table 2 for scoring method modified from the scale used by Rizwan et al, Pol. J. Pharmacol., 55(6):965-71 (2003)).
Level I and 2 behaviors were not considered convulsions, but were scored to keep track of any possible sedative or abnormal effect following drug treatment.
Data are expressed as the number of myoclonic convulsions (level 3+level 4 events), number of clonic convulsions (level 5 events), and number of tonic-clonic events (level 6+level 7 events; Table 3-1), as well as the latency to first convulsion onset (in seconds). The sum of each convulsion type/mouse (myclonic, clonic, or clonic-tonic) was entered into GraphPad Prism and analyzed by One-Way ANOVA with post-hoc Dunnett's Multiple Comparisons Tests relative to vehicle+PTZ. Overall significance was established when P<0.0125 (corrected for number of groups). Post-hoc comparisons were considered significant when P<0.05.

[1] = 1 mg/kg intraperitoneal, 60 minutes before PTZ 50 mg/kg IP
[2] = 10 mg/kg intraperitoneal, 60 minutes before PTZ 50 mg/kg IP
[3] = 0.5 mg/kg intraperitoneal, 30 minutes before PTZ 50 mg/kg IP
[4] = 50 mg/kg intraperitoneal, 60 minutes before PTZ 50 mg/kg IP

Row | Structure (SMILES) | Latency to first convulsion [1] | Number of events Myoclonic [1] | Number of events Clonic [1] | Number of events Tonic-Clonic [1] | other results
1 | NC(C(=O)N1CCCC1)C(O)c1ccncc1 (racemic) [Compound A] | 342.8 ± 76.7 s | 1.40 ± 0.4 | 0.2 ± 0.1 | 0.5 ± 0.2 | –
2 | N[C@@H](C(=O)N1CCCC1)[C@@H](O)c1ccncc1 [Compound B] | 208.8 ± 84.29 s | 0.83 ± 0.31 | 0.83 ± 0.17 | 0.0 ± 0.0 | Latency to first convulsion [2]: 308.9 ± 92.55 s; Number of events Myoclonic [2]: 0.17 ± 0.17; Number of events Clonic [2]: 0.50 ± 0.22; Number of events Tonic-Clonic [2]: 0.33 ± 0.21
3 | N[C@@H](C(=O)N1CCCC1)[C@@H](O)c1ccc(F)cc1 [Compound C] | 367.1 ± 78.30 s | 2.00 ± 1.02 | 0.10 ± 0.10 | 0.0 ± 0.0 | –
4 | CN1C(=O)CN=C(c2ccccc2)c2cc(Cl)ccc21 [Diazepam, reference compound] | – | – | – | – | Latency to first convulsion [3]: 546.4 ± 53.60 s; Number of events Myoclonic [3]: 0.0 ± 0.0; Number of events Clonic [3]: 0.0 ± 0.0; Number of events Tonic-Clonic [3]: 0.60 ± 0.60
5 | NCC1(CC(=O)O)CCCCC1 [Gabapentin, reference compound] | – | – | – | – | Latency to first convulsion [4]: 194.8 ± 30.41 s; Number of events Myoclonic [4]: 1.20 ± 0.55; Number of events Clonic [4]: 0.90 ± 0.18; Number of events Tonic-Clonic [4]: 0.20 ± 0.13
